In data set [1] the test system is rats. As to the kind of experiment: Pilocarpine-induced Status Epilepticus in Rats (prevention; intervention @ 30 min). To be noted: for responders at 65 mg/kg: read-out: Prevention, Protection; for Prevention, Protection: rat, in vivo, 200 mg/kg.
Description: The animal testing was performed using the protocols developed in the Anticonvulsant Screening Program (ASP) at the National Institute of Neurological Disorders and Stroke (NINDS), National Institutes of Health (NIH).
In data set [2] the test system is mice. As to the kind of experiment: Minimal motor impairment (MID50), mice i.p. To be noted: for MID50 (median minimal motor impairment dose): mice, i.p.
Description: (§1) The animal testing was performed according to methods known in the relevant art.
In data set [3] the test system is mice. Nature of the data set: Maximal Electroshock Seizure (MES) test, mice i.p. Format: in vivo. Particulars: for ED50: Mus musculus, ip. A general note: In the maximal electroshock model the usual endpoint is tonic extension of the hind limbs.
For data set [4], the system named is mice. Nature of the data set: Subcutaneous Metrazol Seizure threshold (s.c. MET) test, mice i.p. Format: in vivo. Particulars: for ED50: Mus musculus.
The subject of data set [5] is rats. Nature of the data set: MES test, rats p.o. Format: in vivo.
For data set [6], the system named is C3A hepatocyte cells. Nature of the data set: ACTIVTox LDH release assay. It is filed as cell-based. To be noted: for LDH release, mean fold control: at 100 μM, C3A hepatocyte cells, value below 1.75 = no cyto- or hepatotoxic activity; for cyto- or hepatotoxicity, ACTIVTox data: at physiologically relevant concentrations (i.e., <100 µM). The protocol:
Compounds A, I, H, and F were tested by Stem Cell Innovations, Inc. (Houston, TX) in their ACTIVTox® Human Liver Cell-based assays (using C3A hepatocyte cells). Specifically, the compounds were tested in the LDH release assay, which determines the release of Lactate DeHydrogenase (an indicator of cell death) at various concentrations of test compound.
A concentration of 100 µM of test compound is a much higher level of exposure to liver cells than would ever be expected under physiological conditions. Therefore, using 100 μM as a standard test concentration (for comparative purposes), the ratio of the absorbance (which measures the level of LDH release) resulting from the presence of the test compound versus the negative control is a value known as the “average (or mean) fold control” (Average Fold Control=Average of Absorbance/Average of Negative Control).
In general terms: LDH in the medium is a marker of cell lysis.

Data set [7] relates to mice. As to the kind of experiment: 6 Hz (minimal clonic seizure) model, mice i.p. Format: in vivo.
The subject of data set [8] is C3A hepatocyte cells. Nature of the data set: ACTIVTox Cell Proliferation Assay. It is filed as cell-based. To be noted: at a concentration of 100 μM.
Data set [9] has as its system mice. Nature of the data set: Corneal kindled mouse model. It is filed as in vivo. To be noted: mice i.p.; 100 mg/kg @ 0.5 hr.
Data set [10] relates to mice. To be noted: mouse, in vivo, ip.
Description: as §1
The test system of the next data set is SMN2 promoter. As to the kind of experiment: SMN2 promoter β-lactamase reporter assay in NSC34 motor neuron-like cells. It is filed as cell-based. The protocol:
FIG. 30 illustrates a screen for SMN2 expression of a number of compounds described herein.
SMN2 promoter activity was measured using NSC34 motor neuron-like cells stably transfected with a β-lactamase (BLA) reporter gene under the control of a 3.4-kilobase fragment of the SMN2 promoter. D156844 was used as a positive control for this assay.

Data set [11] has as its system rats. Nature of the data set: s.c. MET test, rats p.o. Format: in vivo. To be noted: Rattus norvegicus, p.o.
The subject of data set [12] is rats. As to the kind of experiment: Preliminary Hippocampal Kindling Screening in rats (i.p.). It is filed as in vivo. To be noted: at 65 mg/kg.
The nature of the next data set: in vivo. Particulars: mouse, ip.
Data set [13] has as its system rats. As to the kind of experiment: Hippocampal Kindled Rats model. It is filed as in vivo. To be noted: Rattus norvegicus.
Data set [14] concerns inclusion of exon 7 in SMN2 mRNAs. Nature of the data set: Exon 7 inclusion BLA reporter assay in NSC34 cell line. Format: cell-based. The text has this:
To measure changes in the inclusion of exon 7 in SMN2 mRNAs, another NSC34 cell line was used that stably transfected with a reporter construct which expresses BLA when exon 7 is included in the SMN2 minigene mRNAs. 5-(N-ethyl-N-isopropyl)-amiloride (EIPA) was used as a positive control for this assay. Data for tis assay is illustrated in FIG. 30.
On the technique in general: Reporter assays use an easily measured gene product as a stand-in for the process of interest.

Data set [15] relates to rats. As to the kind of experiment: Minimal motor impairment (MID50), rats p.o. Format: in vivo.
[16] abbreviates: Rattus norvegicus, 0.5 h, read-out: Intervention @ 30 min, Protection.

Several values for one entry are separate records, joined by “and”; a condition that tells them apart may be missing. Identical values can stand only once. Like-named read-outs stand apart in the source and are kept apart here.

The source of these data is US12486218B2, “Compounds advantageous in the treatment of central nervous system diseases and disorders” (AurimMed Pharma, Inc., priority 2008, dated 2025).

Description for in vivo: as §1

For `CC(CC(N)=O)c1cccc(OC(F)(F)F)c1` (centres unmarked) [I, 3-[3-(trifluoromethoxy)-phenyl]butyramide], the responders at 130 mg/kg with rats [1] (setting [16]) came to 100%. For the same compound, the responders at 65 mg/kg in the data set on rats [1] (Rattus norvegicus) turned out to be 86%. For the same compound, in the data set with mice [2] (mice i.p., 100 mg/kg @ 0.5 hr), the “MID50, fraction of animals” value is given as 8/8 @0.50 hr,. Besides, the “MID50 (median minimal motor impairment dose)” value in the data set on mice [2] was under 100 mg/kg. Also, the ED50 (in general, the midpoint of the dose-response relation) is under 100 mg/kg with mice [3] (mice) and at most 100 mg/kg with mice [4] (mice, i.p.). In addition, the “MES, fraction of animals” value with mice [3] (mice i.p., 100 mg/kg @ 0.5 hr) is 3/3 @0.5,; in the data set on mice [3] (mice i.p., 100 mg/kg @ 4.0 hr), 3/3 @ 4.0 hr. For the same compound, the “s.c. MET, fraction of animals” value is 1/1 @0.5, with mice [4] (mice i.p., 100 mg/kg @ 0.5 hr) and 1/5 @ 4.0 hr in the data set on mice [4] (mice i.p., 100 mg/kg @ 4.0 hr). Further, the “activity in the MES test” value in the data set on rats [5] (at 30 mg/kg) was “activity”. Further, in the data set on C3A hepatocyte cells [6], the “LDH release, mean fold control” value came to 1.03. For the same compound, the “cyto- or hepatotoxicity, ACTIVTox data” value in the data set on C3A hepatocyte cells [6] is given as “not cyto- or hepatotoxic”. Besides, the “6 Hz (32 mA), fraction of animals” value with mice [7] (mice i.p., 50 mg/kg @ 0.25 hr) was 3/4; with mice [7] (mice i.p., 50 mg/kg @ 0.5 hr), 2/4; with mice [7] (mice i.p., 100 mg/kg @ 4.0 hr), 2.0 and 1/4. Also, the “Cell Proliferation Assay, mean fold control” value in the data set on C3A hepatocyte cells [8] stood at 1.25. In addition, the “toxicity to proliferating cells” value with C3A hepatocyte cells [8] is recorded as “non-toxic”. The “Corneal Kindled, Average seizure score” value in the data set with mice [9] is “score is 0:”. Besides, the “Corneal Kindled, fraction of animals” value in the data set on mice [9] is given as 4/4 @.
Turning to `COc1ccc(C(C)CC(N)=O)cc1` (racemic) [BZ], the “MID50, result in words” value with mice [10] is on record as “No”. The “Prevention, Protection” value with rats [1] is given as 100%. Moreover, in the data set on SMN2 promoter, the “Promoter (SMN2 promoter test, summary YES/NO)” value is “YES” and the SMN2 promoter activity entry is “increased SMN2 promoter activity”.
With `CC(C)(CC(N)=O)c1ccc(Cl)cc1` [Compound A, 3-(4-Chlorophenyl)-3-methylbutyramide], the responders at 120 mg/kg with rats [1] (setting [16]) is 57%. Also, in the data set on rats [1] (Rattus norvegicus), the responders at 65 mg/kg was 86%. Besides, the ED50 in the data set on rats [11] came to 45 mg/kg; in the data set with mice [3] (mice) it was 41.6 mg/kg; in the data set with mice [3] (mice i.p., @ 0.25 hr), 41.6 mg/kg; in the data set with mice [4] (mice i.p., @ 0.25 hr), 39.3 mg/kg; in the data set on mice [4] (mice, i.p.) it was 39.3 mg/kg; in the data set on rats [13], 26 mg/kg. Further, the ED50 in the data set with rats [5] (Rattus norvegicus, po) turned out to be 28.8 mg/kg; with mice [7] (Mus musculus, ip, mice, i.p., read-out: 6 Hz ED50), 47.6 mg/kg. For the same compound, in the data set with mice [2], the “MID50 (median minimal motor impairment dose)” value is listed as 107.87 mg/kg. The “seizure score, Preliminary Hippocampal Kindling Screening” value with rats [12] was “zero”. The SMN2 promoter activity result in the data set with SMN2 promoter (treatment for 19 hours at a concentration of 1 μM) was “increased SMN2 promoter activity”. In “in vivo”, this compound had a TD50 of 108 mg/kg. In the data set with C3A hepatocyte cells [6], the “LDH release, mean fold control” value was found to be 1.05. Also, the “cyto- or hepatotoxicity, ACTIVTox data” value in the data set with C3A hepatocyte cells [6] is “not cyto- or hepatotoxic”. In addition, the “effect on the inclusion of exon 7 in SMN2 transcripts” value in data set [14] (NSC34 exon 7 BLA reporter cells) was “positive effect on the inclusion of exon 7”. Besides, the “Exon 7 inclusion (summary YES/NO)” value in data set [14] (Table 13 summary) is given as “YES”. The “Cell Proliferation Assay, mean fold control” value in the data set on C3A hepatocyte cells [8] was determined as 1.15. Further, the “toxicity to proliferating cells” value in the data set on C3A hepatocyte cells [8] is “non-toxic”. Also, in the data set on rats [15], the MID50 came to 244.90 mg/kg.
For the compound `Cc1ccc(C(CC(N)=O)C2CC2)cc1` (centres unmarked) [AL, 3-Cyclopropyl-3-ρ-tolyl-propionamide], the “MID50, result in words” value in the data set on mice [10] is “No”. In the data set with rats [1], the “Prevention, Protection” value is on record as 100%. The SMN2 promoter activity entry in the data set with SMN2 promoter is “increased SMN2 promoter activity”. The “activity in the MES test” value in the data set on mice [3] (mouse, in vivo, 100 mg/kg) is on record as “activity”. Moreover, the “6 Hz (32 mA), fraction of animals” value in the data set with mice [7] (mouse, in vivo, ip, 100 mg/kg) was 4/4, 2/4, and 2/4 , 1/4 @.
